Data: patent US20050239656A1, “Pyridine compounds or salts thereof and herbicides containing the same” (priority 2002, published 2005)

What was measured:
[1] = tested on: crabgrass; assay: Test Example 2: soil surface treatment, upland pot test; format: in vivo, Digitaria sanguinalis L.; details: observed 20th to 28th day
How it was run: (§1)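 Pots (1/170,000 ha) filled with upland field soil were seeded, then treated on the following day by spraying the soil surface with diluted formulation (1,500 L/ha) at a fixed a.i. dose. Control was rated visually on a 0–100% scale at 20–28 days.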

[2] = tested on: prickly sida; assay: Test Example 1: foliage treatment, upland pot test; format: in vivo, Sida spinosa L.; details: active ingredient 500 g/ha, observed 18th to 23rd day, 0 = non-treated, 100 = complete kill
[3] = tested on: rice; assay: Test Example 2: soil surface treatment, upland pot test; format: in vivo, Oryza sativa L.; details: observed 20th to 28th day
How it was run: as §1

[4] = tested on: redroot pigweed; assay: Test Example 1: foliage treatment, upland pot test; format: in vivo, Amaranthus retroflexus L.; details: active ingredient 500 g/ha, observed 18th to 23rd day, 0 = non-treated, 100 = complete kill
[5] = tested on: green foxtail; assay: Test Example 2: soil surface treatment, upland pot test; format: in vivo, Setaria viridis L.; details: observed 20th to 28th day
How it was run: as §1

[6] = tested on: soybean; assay: Test Example 1: foliage treatment, upland pot test; format: in vivo, Glycine max Merr.; details: crop, active ingredient 500 g/ha, observed 18th to 23rd day, 0 = non-treated, 100 = complete kill
How it was run: (§2)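 Visual growth-control scores (0 = untreated, 100 = complete kill) were taken 18–23 days after foliar spraying of a wettable powder or emulsifiable concentrate, diluted in 500 L/ha water with 0.1% (v/v) spreader. Treatment leaf stages: barnyardgrass 1.3–2.8, rice 1.2–2.6, wheat 1.3–2.4, soybean 0.1–0.4.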

[7] = tested on: barnyardgrass; assay: Test Example 1: foliage treatment, upland pot test; format: in vivo, Echinochloa crus-galli L.; details: active ingredient 500 g/ha, observed 18th to 23rd day, 0 = non-treated, 100 = complete kill
How it was run: as §2

[8] = tested on: barnyardgrass; assay: Test Example 2: soil surface treatment, upland pot test; format: in vivo, Echinochloa crus-galli L.; details: observed 20th to 28th day
How it was run: as §1

[9] = tested on: corn; assay: as above; format: in vivo, Zea mays L.; details: observed 20th to 28th day
How it was run: as §1

[10] = tested on: crabgrass; assay: Test Example 1: foliage treatment, upland pot test; format: in vivo, Digitaria sanguinalis L.; details: active ingredient 500 g/ha, observed 18th to 23rd day, 0 = non-treated, 100 = complete kill
[11] = tested on: barnyardgrass; assay: Test Example 3: paddy pot test, application under submerged conditions; format: in vivo, Echinochloa crus-galli L.; details: submerged application at 0.5 leaf stage, visually observed 14 days after application, 0 = non-treated, 100 = complete kill
How it was run: (§3)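 Visual rating of growth control (0% equals untreated, 100% complete kill) made 14 days after treatment. Compound, formulated as wettable powder or emulsifiable concentrate and diluted in water, was pipetted under submerged conditions at predetermined active-ingredient doses once weeds reached 0.5-leaf (barnyardgrass, bulrush) or primary-leaf (wapato, from tubers) stage. Pots of greenhouse paddy soil held 3–4 cm flooding.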

[12] = tested on: velvetleaf; assay: Test Example 2: soil surface treatment, upland pot test; format: in vivo, Abutilon theophrasti MEDIC.; details: observed 20th to 28th day
How it was run: as §1

[13] = tested on: wheat; assay: Test Example 1: foliage treatment, upland pot test; format: in vivo, Triticum spp.; details: crop, active ingredient 500 g/ha, observed 18th to 23rd day, 0 = non-treated, 100 = complete kill
How it was run: as §2

[14] = tested on: velvetleaf; assay: Test Example 1: foliage treatment, upland pot test; format: in vivo, Abutilon theophrasti MEDIC.; details: active ingredient 500 g/ha, observed 18th to 23rd day, 0 = non-treated, 100 = complete kill
[15] = tested on: prickly sida; assay: Test Example 2: soil surface treatment, upland pot test; format: in vivo, Sida spinosa L.; details: observed 20th to 28th day
How it was run: as §1

[16] = tested on: japanese bulrush; assay: Test Example 3: paddy pot test, application under submerged conditions; format: in vivo, Scirpus juncoides; details: submerged application at 0.5 leaf stage, visually observed 14 days after application, 0 = non-treated, 100 = complete kill
How it was run: as §3

[17] = tested on: redroot pigweed; assay: Test Example 2: soil surface treatment, upland pot test; format: in vivo, Amaranthus retroflexus L.; details: observed 20th to 28th day
How it was run: as §1

[18] = tested on: corn; assay: Test Example 1: foliage treatment, upland pot test; format: in vivo, Zea mays L.; details: crop, active ingredient 500 g/ha, observed 18th to 23rd day, 0 = non-treated, 100 = complete kill
How it was run: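 In this upland pot foliage test, corn plants at 2.1 to 3.2 leaf stages were sprayed by a small size sprayer. The spray was a conventionally formulated wettable powder or emulsifiable concentrate weighed to a set active ingredient amount, diluted in water at 500 L/ha, plus 0.1% (v/v) agricultural spreader. Visual assessment on days 18 to 23 gave growth controlling degree (%), where 0 equals untreated and 100 means complete kill.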

[19] = tested on: rice (var. Nihonbare); assay: Test Example 3: paddy pot test, transplanted rice; format: in vivo, Oryza sativa L.; details: applied 4th day after transplantation, visually observed 21st day after application, 0 = non-treated, 100 = complete kill
How it was run: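 Visual crop-injury rating (0 = as untreated, 100 = complete kill, %) taken 21 days post-application. Treatment: formulated compound, water-diluted, pipetted into 3–4 cm flood water at a preset active-ingredient dose, 4 days after transplanting 2-leaf Nihonbare rice 3 cm deep in puddled paddy soil.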

[20] = tested on: rice; assay: Test Example 1: foliage treatment, upland pot test; format: in vivo, Oryza sativa L.; details: crop, active ingredient 500 g/ha, observed 18th to 23rd day, 0 = non-treated, 100 = complete kill
How it was run: as §2

[21] = tested on: soybean; assay: Test Example 2: soil surface treatment, upland pot test; format: in vivo, Glycine max Merr.; details: observed 20th to 28th day
How it was run: as §1

[22] = tested on: green foxtail; assay: Test Example 1: foliage treatment, upland pot test; format: in vivo, Setaria viridis L.; details: active ingredient 500 g/ha, observed 18th to 23rd day, 0 = non-treated, 100 = complete kill
[23] = tested on: wheat; assay: Test Example 2: soil surface treatment, upland pot test; format: in vivo, Triticum spp.; details: observed 20th to 28th day
How it was run: as §1

SMILES	Growth controlling degree (%) Crabgrass ([1]; active ingredient 500 g/ha) [%]	Growth controlling degree (%) Prickly sida [2] [%]	Growth controlling degree (%) Rice ([3]; active ingredient 500 g/ha) [%]	Growth controlling degree (%) Redroot pigweed [4] [%]	Growth controlling degree (%) Green foxtail ([5]; active ingredient 500 g/ha) [%]	Growth controlling degree (%) Soybean [6] [%]	Growth controlling degree (%) Barnyardgrass [7] [%]	Growth controlling degree (%) Barnyardgrass ([8]; active ingredient 500 g/ha) [%]	Growth controlling degree (%) Corn ([9]; active ingredient 500 g/ha) [%]	Growth controlling degree (%) Crabgrass [10] [%]	Growth controlling degree (%) Velvetleaf ([12]; active ingredient 500 g/ha) [%]	Growth controlling degree (%) wheat [13] [%]	Growth controlling degree (%) Velvetleaf [14] [%]	Growth controlling degree (%) Prickly sida ([15]; active ingredient 500 g/ha) [%]	Growth controlling degree (%) Redroot pigweed ([17]; active ingredient 500 g/ha) [%]	Growth controlling degree (%) Corn [18] [%]	Growth controlling degree (%) Rice [20] [%]	Growth controlling degree (%) Soyabean ([21]; active ingredient 500 g/ha) [%]	Growth controlling degree (%) Green foxtail [22] [%]	Growth controlling degree (%) wheat ([23]; active ingredient 500 g/ha) [%]	also measured
Cc1ccc(OC(C)C(=O)N(C)C(c2cnccc2C(F)(F)F)C(C)C)cc1 (mixture of isomers) [I-131]	100	70	20	70	100	80	70	100	10	80	0	50	50	60	30	50	30	40	70	20	Growth controlling degree (%) Barnyardgrass ([11]; active ingredient 250 g/ha): 100%; Growth controlling degree (%) Japanese bulrush ([16]; active ingredient 250 g/ha): 95%; Growth controlling degree (%) Rice ([19]; active ingredient 250 g/ha): 10%
CC(C)C(c1cnccc1C(F)(F)F)N(C)C(=O)Cc1ccc(OC(F)F)cc1 (racemic) [I-128]	100	80	40	60	100	80	70	100	50	95	60	30	80	80	30	70	50	20	50	30	Growth controlling degree (%) Barnyardgrass ([11]; active ingredient 250 g/ha): 100%; Growth controlling degree (%) Japanese bulrush ([16]; active ingredient 250 g/ha): 90%; Growth controlling degree (%) Rice ([19]; active ingredient 250 g/ha): 0%
CC(C)C(c1cnccc1C(F)(F)F)N(C)S(=O)(=O)c1ccc(Cl)cc1 (racemic) [I-125]	100	80	30	60	100	80	70	100	10	95	70	10	70	80	50	60	40	10	70	20	Growth controlling degree (%) Barnyardgrass ([11]; active ingredient 250 g/ha): 100%; Growth controlling degree (%) Japanese bulrush ([16]; active ingredient 250 g/ha): 70%; Growth controlling degree (%) Rice ([19]; active ingredient 250 g/ha): 10%
Cc1ccc(S(=O)(=O)N(C)C(c2cnccc2C(F)(F)F)C(C)C)cc1 (racemic) [I-130]	–	80	–	70	–	40	70	–	–	80	–	10	70	–	–	70	40	–	60	–	Growth controlling degree (%) Crabgrass ([1]; active ingredient 250 g/ha): 98%; Growth controlling degree (%) Rice ([3]; active ingredient 250 g/ha): 40%; Growth controlling degree (%) Green foxtail ([5]; active ingredient 250 g/ha): 95%; Growth controlling degree (%) Barnyardgrass ([8]; active ingredient 250 g/ha): 100%; Growth controlling degree (%) Corn ([9]; active ingredient 250 g/ha): 20%; Growth controlling degree (%) Barnyardgrass ([11]; active ingredient 125 g/ha): 100%; Growth controlling degree (%) Velvetleaf ([12]; active ingredient 250 g/ha): 10%; Growth controlling degree (%) Prickly sida ([15]; active ingredient 250 g/ha): 50%; Growth controlling degree (%) Japanese bulrush ([16]; active ingredient 125 g/ha): 70%; Growth controlling degree (%) Redroot pigweed ([17]; active ingredient 250 g/ha): 10%; Growth controlling degree (%) Rice ([19]; active ingredient 125 g/ha): 10%; Growth controlling degree (%) Soyabean ([21]; active ingredient 250 g/ha): 10%; Growth controlling degree (%) wheat ([23]; active ingredient 250 g/ha): 20%
CC(C)C(c1cnccc1C(F)(F)F)N(C)S(=O)(=O)c1ccc(F)cc1 (racemic) [I-124]	100	80	20	50	100	80	80	100	20	95	80	60	70	90	60	60	40	30	70	10	Growth controlling degree (%) Barnyardgrass ([11]; active ingredient 250 g/ha): 100%; Growth controlling degree (%) Japanese bulrush ([16]; active ingredient 250 g/ha): 70%; Growth controlling degree (%) Rice ([19]; active ingredient 250 g/ha): 0%
CC(C)C(c1cnccc1C(F)(F)F)N(C)C(=O)CC1Cc2ccccc2C1 (stereo not drawn) [I-191]	98	80	20	70	100	50	70	100	40	70	10	10	80	10	50	60	20	30	80	20	Growth controlling degree (%) Barnyardgrass ([11]; active ingredient 500 g/ha): 100%; Growth controlling degree (%) Japanese bulrush ([16]; active ingredient 500 g/ha): 90%; Growth controlling degree (%) Rice ([19]; active ingredient 500 g/ha): 20%
